Measurements from patent US20200261409A1, “METHODS FOR PAIN TREATMENT USING RESINIFERATOXIN” (priority 2015, published 2020).
Entries after “also recorded” stand apart in the source; their conditions may differ.

Experiments:
[1] = test system: other neuronal populations in the spinal cord (NeuN; primary motor neurons); assay: Neuronal nuclei (NeuN) staining of the spinal cord after PG-ED injection; format: in vivo, Yucatan miniature swine; conditions: PG-ED injection of RTX; FIGS. 3A-3D
Experimental: The study was approved by the Institutional Animal Care and Use Committee of the Mayo Clinic. Female Yucatan miniature swine (Exemplar Genetics, Sioux Center, Iowa, USA) weighing 25-45 kg at the time of RTX administration were used. For both procedures (i.e., ACLT and PG-ED injection), the pigs were anesthetized by intramuscular injection of Telazol (tiletamine and zolazepam, 5 mg/kg; Fort Dodge Animal Health, Fort Dodge, Iowa, USA), xylazine (2 mg/kg; Akorn, Decatur, Ill., USA), and glycopyrrolate (0.01 mg/kg; Baxter Healthcare, Deerfield, Ill., USA), followed by endotracheal intubation and anesthesia maintenance with 1.5%-2% isoflurane (Piramal Healthcare, Bethlehem, Pa., USA). For antibiotic prophylaxis, the animals were given a single dose of intramuscular ceftiofur (5 mg/kg; Pfizer, New York, N.Y., USA). For postoperative analgesia, the animals received a single dose of slow release buprenorphine (0.18 mg/kg; Wildlife Pharmaceuticals, Windsor, Colo., USA) intramuscularly and then oral carprofen (3 mg/kg; Pfizer Animal Health, New York, N.Y., USA) as needed for the first three postoperative days. For CTF guided PG-ED injection of RTX, a clinical CT scanner (Definition DS, Siemens Healthcare) with interventional CTF hardware and software packages was used. […]

[2] = test system: sP+ axons in the dorsal horn of the spinal cord; assay: Substance P (sP) immunohistochemistry of the spinal cord after PG-ED injection; format: in vivo, Yucatan miniature swine
Experimental: (§1) The study was approved by the Institutional Animal Care and Use Committee of the Mayo Clinic. Female Yucatan miniature swine (Exemplar Genetics, Sioux Center, Iowa, USA) weighing 25-45 kg at the time of RTX administration were used. For both procedures (i.e., ACLT and PG-ED injection), the pigs were anesthetized by intramuscular injection of Telazol (tiletamine and zolazepam, 5 mg/kg; Fort Dodge Animal Health, Fort Dodge, Iowa, USA), xylazine (2 mg/kg; Akorn, Decatur, Ill., USA), and glycopyrrolate (0.01 mg/kg; Baxter Healthcare, Deerfield, Ill., USA), followed by endotracheal intubation and anesthesia maintenance with 1.5%-2% isoflurane (Piramal Healthcare, Bethlehem, Pa., USA). For antibiotic prophylaxis, the animals were given a single dose of intramuscular ceftiofur (5 mg/kg; Pfizer, New York, N.Y., USA). For postoperative analgesia, the animals received a single dose of slow release buprenorphine (0.18 mg/kg; Wildlife Pharmaceuticals, Windsor, Colo., USA) intramuscularly and then oral carprofen (3 mg/kg; Pfizer Animal Health, New York, N.Y., USA) as needed for the first three postoperative days. For CTF guided PG-ED injection of RTX, a clinical CT scanner (Definition DS, Siemens Healthcare) with interventional CTF hardware and software packages was used. A full CT scan of the lumbosacral 13 spine was first performed to visualize the spinal anatomy and to identify the optimal access routes to the targeted PG-ED segments. The CT scanner acquisition settings were the same as reported previously (J. Pleticha, et al., Pig lumbar spine anatomy and imaging-guided lateral lumbar puncture: A new large animal model for intrathecal drug delivery, J. Neurosci. Methods 216, 10-15 (2013)). Next, a 22 G, 6″ spinal needle with Quincke tip (Kimberly-Clark, Roswell, Ga., USA) was advanced to the PG-ED space following the predetermined trajectory. […]

[3] = test system: rats; conditions: subcutaneous and epidural administration; cited from earlier work
[4] = test system: swine with gait asymmetry due to chronic knee pain induced by unilateral ACLT; assay: Blinded behavioral assessment of the limp in the ACLT knee osteoarthritis model; format: in vivo, Yucatan miniature swine
Experimental: as §1

For `C=C(C)[C@]12C[C@@H](C)[C@@]34OC(Cc5ccccc5)(O[C@@H]1[C@@H]3C=C(COC(=O)Cc1ccc(O)c(OC)c1)C[C@]1(O)C(=O)C(C)=C[C@@H]41)O2` [RTX], the “NeuN staining (spinal cord neurons, motor neurons of the anterior horn)” value [1] was “unaffected; also recorded: not affected”, the “sP+ axonal terminals in the dorsal horn at injected spinal levels, ACLT animals” value ([2]; ACLT pigs, n=3 RTX, PG-ED at ipsilateral L4, L5, 51, and S2, FIGS. 4A-4F) was “complete loss of sP+ fibers; also recorded: complete loss of the sP+ axonal terminals” and the “RTX dosed animals with low/none sP histology (blinded observer)” value ([2]; Example 7, second group of pigs, PG-ED, doses of 1.5 μg and 5 μg, P=0.002) was 6 of 6. For the same compound, the “sP+ axons/fibers in the dorsal horn of the spinal cord at the injected levels” value ([2]; PG-ED injection, 5 μg RTX in 500 μl diluent per spinal level, blinded analysis, n=10 animals in study, sign test p<0.001) was “no sP staining; also recorded: complete loss of sP+ axons”, the “thermal analgesia, time without restoration of pain sensitivity” value [3] was “over 7 days” and the “limp / gait asymmetry, before vs after injection (blinded observers)” value ([4]; ACLT pigs, n=3 RTX, PG-ED at ipsilateral L4, L5, 51, and S2, 3-5 weeks after administration, sign test p<0.02) was “improvements in symmetric weight bearing; also recorded: improvement of limp in all animals; also recorded: all animals receiving RTX improved; also recorded: significant reversal of gait asymmetry”. The “clinically observed pain-related behavior (blinded observer)” value ([4]; Example 7, pigs with knee osteoarthritis, n=8, PG-ED, p=0.03) was “improved”.

For `CN1CC[C@]23c4c5ccc(O)c4O[C@H]2[C@@H](O)C=C[C@H]3[C@H]1C5` [morphine], the weight-bearing asymmetry ([4]; ACLT pigs, intramuscular, unblinded observations) was “diminished weight-bearing asymmetry”.
